{"source": "ChEMBL document CHEMBL4251656", "about": "“Design, synthesis, and biological evaluation of novel catecholopyrimidine based PDE4 inhibitor for the treatment of atopic dermatitis” (Eur J Med Chem, 2018)", "key": {"[1]": {"target": "T1, 3',5'-cyclic-AMP phosphodiesterase 4B (Homo sapiens, UniProt Q07343)", "T1 sequence (Q07343 whole entry)": "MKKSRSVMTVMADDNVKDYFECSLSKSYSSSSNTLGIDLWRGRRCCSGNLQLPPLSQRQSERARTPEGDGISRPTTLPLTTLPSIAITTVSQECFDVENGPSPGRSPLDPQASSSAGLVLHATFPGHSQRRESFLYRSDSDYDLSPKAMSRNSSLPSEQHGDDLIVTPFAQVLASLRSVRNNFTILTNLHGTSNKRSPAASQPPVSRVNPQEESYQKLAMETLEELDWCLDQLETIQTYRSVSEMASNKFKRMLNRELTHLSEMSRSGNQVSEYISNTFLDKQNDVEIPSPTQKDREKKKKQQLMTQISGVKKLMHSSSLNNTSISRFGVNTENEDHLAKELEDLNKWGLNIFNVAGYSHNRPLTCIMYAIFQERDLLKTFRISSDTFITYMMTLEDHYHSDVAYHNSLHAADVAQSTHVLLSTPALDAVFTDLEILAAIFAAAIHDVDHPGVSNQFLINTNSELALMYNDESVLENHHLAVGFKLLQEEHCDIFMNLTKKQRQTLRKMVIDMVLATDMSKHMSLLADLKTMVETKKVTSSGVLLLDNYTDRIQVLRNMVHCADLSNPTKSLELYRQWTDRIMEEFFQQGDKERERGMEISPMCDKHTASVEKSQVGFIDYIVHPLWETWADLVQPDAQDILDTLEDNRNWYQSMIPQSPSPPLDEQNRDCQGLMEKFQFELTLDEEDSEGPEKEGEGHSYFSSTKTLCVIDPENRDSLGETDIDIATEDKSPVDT", "test": "Inhibition of recombinant full length human N-terminal GST-tagged PDE4B1 expressed in baculovirus infected Sf9 cells using cAMP as substrate after 1 hr by LANCE TR-FRET assay"}, "Homo sapiens": {"organism": "Homo sapiens", "test": "Selectivity ratio of IC50 for nhibition of recombinant human N-terminal GST-tagged PDE4D7 (2 to 748 residues) expressed in baculovirus infected Sf9 cells to IC50 for recombinant full length human N-terminal GST-tagged PDE4B1 expressed in baculovirus infected Sf9 cells"}, "Mus musculus [2]": {"tested_on": "Mus musculus", "test": "Reversal of DNCB-induced atopic dermatitis-like symptoms in Balb/c mouse assessed as reduction in skin scaling or dryness administered topically once daily starting from day 6 post DNCB treatment up to 34 days", "type": "functional, organism-based"}, "Mus musculus [3]": {"tested_on": "Mus musculus", "test": "Reversal of DNCB-induced atopic dermatitis-like symptoms in Balb/c mouse assessed as reduction in hemorrhage administered topically once daily starting from day 6 post DNCB treatment up to 34 days", "type": "functional, organism-based"}, "Mus musculus [4]": {"tested_on": "Mus musculus", "test": "Reversal of DNCB-induced atopic dermatitis-like symptoms in Balb/c mouse assessed as reduction in excoriation administered topically once daily starting from day 6 post DNCB treatment up to 34 days", "type": "functional, organism-based"}, "Mus musculus [5]": {"tested_on": "Mus musculus", "test": "Reversal of DNCB-induced atopic dermatitis-like symptoms in Balb/c mouse assessed as reduction in edema administered topically once daily starting from day 6 post DNCB treatment up to 34 days", "type": "functional, organism-based"}, "Mus musculus [6]": {"tested_on": "Mus musculus", "test": "Reversal of DNCB-induced atopic dermatitis-like symptoms in Balb/c mouse assessed as reduction in scratching frequency administered topically once daily starting from day 6 post DNCB treatment up to 34 days", "type": "functional, organism-based"}, "Mus musculus [7]": {"tested_on": "Mus musculus", "test": "Reversal of DNCB-induced atopic dermatitis-like symptoms in Balb/c mouse assessed as reduction in signs of edema administered topically once daily starting from day 6 post DNCB treatment up to 34 days by hematoxylin and eosin staining based light microscopic method", "type": "functional, organism-based"}, "Mus musculus [8]": {"tested_on": "Mus musculus", "test": "Reversal of DNCB-induced atopic dermatitis-like symptoms in Balb/c mouse assessed as dorsal skin thickness administered topically once daily starting from day 6 post DNCB treatment up to 34 days (reference value: 1.19 millimeter)", "type": "functional"}, "Mus musculus [9]": {"tested_on": "Mus musculus", "test": "Toxicity in Balb/c mouse assessed as induction of allergy administered topically once daily up to 34 days", "type": "organism-based", "settings": "in vivo, topical_or_ocular, 816 h"}, "Mus musculus [10]": {"tested_on": "Mus musculus", "test": "Reversal of DNCB-induced atopic dermatitis-like symptoms in Balb/c mouse assessed as reduction in epidermal thickness administered topically once daily starting from day 6 post DNCB treatment up to 34 days by hematoxylin and eosin staining based light microscopic method", "type": "functional, organism-based"}, "[11]": {"target": "Dual 3',5'-cyclic-AMP and -GMP phosphodiesterase 11A (Homo sapiens, UniProt Q9HCR9)", "sequence (Q9HCR9 whole entry)": "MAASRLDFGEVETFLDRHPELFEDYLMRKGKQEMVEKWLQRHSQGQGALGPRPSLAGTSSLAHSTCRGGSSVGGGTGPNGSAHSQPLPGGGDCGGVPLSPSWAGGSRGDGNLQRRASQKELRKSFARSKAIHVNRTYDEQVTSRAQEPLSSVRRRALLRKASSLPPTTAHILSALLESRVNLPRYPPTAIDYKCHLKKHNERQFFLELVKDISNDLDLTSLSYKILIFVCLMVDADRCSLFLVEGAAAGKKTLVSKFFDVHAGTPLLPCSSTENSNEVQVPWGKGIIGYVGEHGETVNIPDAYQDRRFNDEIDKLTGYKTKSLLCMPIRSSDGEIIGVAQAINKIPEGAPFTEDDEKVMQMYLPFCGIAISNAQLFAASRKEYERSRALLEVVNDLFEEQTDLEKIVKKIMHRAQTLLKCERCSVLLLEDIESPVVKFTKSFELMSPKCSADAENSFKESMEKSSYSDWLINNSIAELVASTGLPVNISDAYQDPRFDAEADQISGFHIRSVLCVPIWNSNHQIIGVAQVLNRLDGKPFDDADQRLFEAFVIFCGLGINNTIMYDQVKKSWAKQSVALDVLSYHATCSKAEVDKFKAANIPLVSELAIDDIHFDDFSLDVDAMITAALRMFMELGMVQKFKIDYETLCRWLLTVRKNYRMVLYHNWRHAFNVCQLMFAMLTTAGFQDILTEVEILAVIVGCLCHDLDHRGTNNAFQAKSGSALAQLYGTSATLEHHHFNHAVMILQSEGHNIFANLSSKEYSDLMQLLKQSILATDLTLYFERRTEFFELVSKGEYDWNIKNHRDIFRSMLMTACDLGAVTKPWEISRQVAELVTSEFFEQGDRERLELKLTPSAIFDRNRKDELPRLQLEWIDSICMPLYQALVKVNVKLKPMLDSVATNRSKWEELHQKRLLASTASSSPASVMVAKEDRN", "test": "Inhibition of PDE11A (unknown origin) using cAMP as substrate after 1 hr by LANCE TR-FRET assay"}, "[12]": {"target": "T1, 3',5'-cyclic-AMP phosphodiesterase 4B", "test": "Inhibition of recombinant human full length N-terminal GST-tagged PDE4B1 expressed in baculovirus infected Sf9 cells using cAMP as substrate after 1 hr by LANCE TR-FRET assay"}, "Mus musculus [13]": {"tested_on": "Mus musculus", "test": "Reversal of DNCB-induced atopic dermatitis-like symptoms in Balb/c mouse assessed as reduction in skin erosion administered topically once daily starting from day 6 post DNCB treatment up to 34 days", "type": "functional, organism-based"}, "Mus musculus [14]": {"tested_on": "Mus musculus", "test": "Reversal of DNCB-induced atopic dermatitis-like symptoms in Balb/c mouse assessed as reduction in epidermal hyperplasia administered topically once daily starting from day 6 post DNCB treatment up to 34 days by hematoxylin and eosin staining based light microscopic method", "type": "functional, organism-based"}, "Mus musculus [15]": {"tested_on": "Mus musculus", "test": "Reversal of DNCB-induced atopic dermatitis-like symptoms in Balb/c mouse assessed as reduction in TNF-alpha level in skin administered topically once daily starting from day 6 post DNCB treatment up to 34 days", "type": "functional, organism-based"}, "[16]": {"target": "T2, 3',5'-cyclic-AMP phosphodiesterase 4A (Homo sapiens, UniProt P27815)", "T2 sequence (P27815 whole entry)": "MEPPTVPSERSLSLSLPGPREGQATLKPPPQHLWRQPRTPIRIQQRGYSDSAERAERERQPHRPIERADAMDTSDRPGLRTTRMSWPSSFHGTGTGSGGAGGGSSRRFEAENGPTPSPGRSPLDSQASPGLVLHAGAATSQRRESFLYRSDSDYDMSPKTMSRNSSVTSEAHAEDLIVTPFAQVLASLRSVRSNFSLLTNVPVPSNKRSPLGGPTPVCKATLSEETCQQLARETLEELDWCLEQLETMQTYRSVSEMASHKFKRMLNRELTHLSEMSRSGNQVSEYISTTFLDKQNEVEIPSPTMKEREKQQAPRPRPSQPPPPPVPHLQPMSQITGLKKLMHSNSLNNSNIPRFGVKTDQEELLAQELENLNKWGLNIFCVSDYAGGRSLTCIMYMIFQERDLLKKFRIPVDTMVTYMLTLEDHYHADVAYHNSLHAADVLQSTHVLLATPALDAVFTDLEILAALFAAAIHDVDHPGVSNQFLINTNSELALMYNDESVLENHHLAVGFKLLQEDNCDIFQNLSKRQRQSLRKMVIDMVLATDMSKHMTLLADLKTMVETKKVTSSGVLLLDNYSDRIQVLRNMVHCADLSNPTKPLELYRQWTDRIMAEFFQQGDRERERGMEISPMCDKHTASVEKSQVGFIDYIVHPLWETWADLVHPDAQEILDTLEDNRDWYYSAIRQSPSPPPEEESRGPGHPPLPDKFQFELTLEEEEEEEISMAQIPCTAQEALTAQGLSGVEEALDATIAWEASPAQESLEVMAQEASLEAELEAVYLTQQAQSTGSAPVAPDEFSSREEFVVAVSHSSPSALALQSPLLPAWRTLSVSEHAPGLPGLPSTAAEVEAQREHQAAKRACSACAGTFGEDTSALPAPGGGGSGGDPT", "test": "Inhibition of recombinant full length human N-terminal GST-tagged PDE4A1 expressed in baculovirus infected Sf9 cells using cAMP as substrate after 1 hr by LANCE TR-FRET assay"}, "Mus musculus [17]": {"tested_on": "Mus musculus", "test": "Reversal of DNCB-induced atopic dermatitis-like symptoms in Balb/c mouse assessed as reduction in inflammatory cell infilteration in epidermal and dermal region of skin administered topically once daily starting from day 6 post DNCB treatment up to 34 days by toluidine blue staining based light microscopic method", "type": "functional, organism-based"}, "Mus musculus [18]": {"tested_on": "Mus musculus", "test": "Reversal of DNCB-induced atopic dermatitis-like symptoms in Balb/c mouse assessed as reduction in serum Ig-E level administered topically once daily starting from day 6 post DNCB treatment up to 34 days", "type": "functional, organism-based"}, "Mus musculus [19]": {"tested_on": "Mus musculus", "test": "Toxicity in Balb/c mouse assessed as effect on skin architecture administered topically once daily up to 34 days by hematoxylin and eosin staining based light microscopic method", "type": "organism-based", "settings": "in vivo, topical_or_ocular, 816 h"}, "Mus musculus [20]": {"tested_on": "Mus musculus", "test": "Reversal of DNCB-induced atopic dermatitis-like symptoms in Balb/c mouse assessed as reduction in erythema administered topically once daily starting from day 6 post DNCB treatment up to 34 days", "type": "functional, organism-based"}, "Mus musculus [21]": {"tested_on": "Mus musculus", "test": "Reversal of DNCB-induced atopic dermatitis-like symptoms in Balb/c mouse assessed as reduction in hyperkeratosis administered topically once daily starting from day 6 post DNCB treatment up to 34 days by hematoxylin and eosin staining based light microscopic method", "type": "functional, organism-based"}, "Mus musculus [22]": {"tested_on": "Mus musculus", "test": "Reversal of DNCB-induced atopic dermatitis-like symptoms in Balb/c mouse assessed as reduction in hypertrophy administered topically once daily starting from day 6 post DNCB treatment up to 34 days by hematoxylin and eosin staining based light microscopic method", "type": "functional, organism-based"}, "[23]": {"target": "T2, 3',5'-cyclic-AMP phosphodiesterase 4A", "test": "Inhibition of recombinant human N-terminal GST-tagged PDE4A4 (2 to 886 residues) expressed in baculovirus infected Sf9 cells using cAMP as substrate after 1 hr by LANCE TR-FRET assay"}, "[24]": {"target": "3',5'-cyclic-AMP phosphodiesterase 4D (Homo sapiens, UniProt Q08499)", "sequence (Q08499 whole entry, the tested form may be a part)": "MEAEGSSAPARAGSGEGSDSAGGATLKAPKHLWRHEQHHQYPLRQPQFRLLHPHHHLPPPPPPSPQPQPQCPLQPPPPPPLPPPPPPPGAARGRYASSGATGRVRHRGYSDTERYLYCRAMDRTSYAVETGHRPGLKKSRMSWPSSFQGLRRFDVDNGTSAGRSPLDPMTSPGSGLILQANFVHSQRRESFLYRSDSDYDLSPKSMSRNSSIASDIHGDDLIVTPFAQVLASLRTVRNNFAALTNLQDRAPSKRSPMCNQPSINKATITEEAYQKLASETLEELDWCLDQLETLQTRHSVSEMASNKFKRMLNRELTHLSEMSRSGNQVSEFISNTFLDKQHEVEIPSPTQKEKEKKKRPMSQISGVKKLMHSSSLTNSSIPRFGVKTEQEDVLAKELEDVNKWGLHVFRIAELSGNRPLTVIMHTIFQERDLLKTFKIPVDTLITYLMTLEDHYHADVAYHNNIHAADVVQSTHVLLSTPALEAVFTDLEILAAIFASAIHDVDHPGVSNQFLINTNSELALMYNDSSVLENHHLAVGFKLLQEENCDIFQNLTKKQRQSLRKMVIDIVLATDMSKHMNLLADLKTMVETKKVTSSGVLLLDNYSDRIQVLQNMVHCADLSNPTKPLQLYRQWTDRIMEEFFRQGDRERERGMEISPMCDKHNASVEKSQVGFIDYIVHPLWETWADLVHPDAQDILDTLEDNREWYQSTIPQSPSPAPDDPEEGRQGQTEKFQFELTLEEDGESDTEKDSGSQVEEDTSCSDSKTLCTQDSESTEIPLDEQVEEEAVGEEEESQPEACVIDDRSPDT", "test": "Inhibition of recombinant human N-terminal GST-tagged PDE4D7 (2 to 748 residues) expressed in baculovirus infected Sf9 cells using cAMP as substrate after 1 hr by LANCE TR-FRET assay"}, "[25]": {"target": "3',5'-cyclic-AMP phosphodiesterase 4C (Homo sapiens, UniProt Q08493)", "sequence (Q08493 whole entry)": "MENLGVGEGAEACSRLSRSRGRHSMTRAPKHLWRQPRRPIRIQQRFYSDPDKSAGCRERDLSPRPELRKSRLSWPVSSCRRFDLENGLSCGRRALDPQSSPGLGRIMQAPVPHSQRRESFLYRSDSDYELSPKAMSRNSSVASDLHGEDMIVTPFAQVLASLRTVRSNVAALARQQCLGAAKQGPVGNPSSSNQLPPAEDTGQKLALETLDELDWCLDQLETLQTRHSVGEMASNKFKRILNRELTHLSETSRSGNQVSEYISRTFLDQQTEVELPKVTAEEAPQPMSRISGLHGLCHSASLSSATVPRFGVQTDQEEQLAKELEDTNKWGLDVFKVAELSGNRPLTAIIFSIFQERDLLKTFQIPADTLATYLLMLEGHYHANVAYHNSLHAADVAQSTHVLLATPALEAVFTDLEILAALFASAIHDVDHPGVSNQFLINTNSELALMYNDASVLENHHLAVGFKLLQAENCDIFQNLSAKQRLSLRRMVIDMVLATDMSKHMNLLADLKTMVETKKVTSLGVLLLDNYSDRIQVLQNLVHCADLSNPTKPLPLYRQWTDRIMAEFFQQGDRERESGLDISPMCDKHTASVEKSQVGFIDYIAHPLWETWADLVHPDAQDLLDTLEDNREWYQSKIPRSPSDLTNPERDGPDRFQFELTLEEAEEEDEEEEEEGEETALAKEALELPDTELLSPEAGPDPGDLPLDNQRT", "test": "Inhibition of recombinant human full length N-terminal GST-tagged PDE4C1 expressed in baculovirus infected Sf9 cells using cAMP as substrate after 1 hr by LANCE TR-FRET assay"}, "[26]": {"target": "cGMP-inhibited 3',5'-cyclic phosphodiesterase 3B (Homo sapiens, UniProt Q13370)", "test": "Inhibition of recombinant human N-terminal GST-tagged PDE3B (592-end residues) expressed in baculovirus infected Sf9 cells using cAMP as substrate after 1 hr by LANCE TR-FRET assay"}}, "note": "The source made the active and inactive calls. The calls are words filed in the database; no cut-off is given here.", "data": [{"smiles": "COc1ccc(-c2nc(C(F)(F)F)ncc2C(=O)Nc2c(C(C)C)cccc2C(C)C)cc1OC", "values": [{"measurement": "IC50", "setting": "[1]", "value": 222, "unit": "nM"}]}, {"smiles": "COc1ccc(-c2nc(C(F)(F)F)ncc2C(=O)Nc2ccncc2)cc1OC", "values": [{"measurement": "Ratio IC50", "setting": "Homo sapiens", "value": 7}, {"measurement": "Activity", "setting": "Mus musculus [2]", "value": "Active"}, {"measurement": "Activity", "setting": "Mus musculus [3]", "value": "Active"}, {"measurement": "Activity", "setting": "Mus musculus [4]", "value": "Active"}, {"measurement": "Activity", "setting": "Mus musculus [5]", "value": "Active"}, {"measurement": "Activity", "setting": "Mus musculus [6]", "value": "Active"}, {"measurement": "Activity", "setting": "Mus musculus [7]", "value": "Active"}, {"measurement": "Activity", "setting": "Mus musculus [8]", "value": 0.71, "unit": "mm"}, {"measurement": "Activity", "setting": "Mus musculus [9]", "value": "Non-Toxic"}, {"measurement": "Activity", "setting": "Mus musculus [10]", "value": "Active"}, {"measurement": "IC50", "setting": "[11]", "value": 250, "unit": "nM"}, {"measurement": "IC50", "setting": "[12]", "value": 15, "unit": "nM"}, {"measurement": "Activity", "setting": "Mus musculus [13]", "value": "Active"}, {"measurement": "Activity", "setting": "Mus musculus [14]", "value": "Active"}, {"measurement": "Activity", "setting": "Mus musculus [15]", "value": "Active"}, {"measurement": "IC50", "setting": "[16]", "value": 98, "unit": "nM"}, {"measurement": "Activity", "setting": "Mus musculus [17]", "value": "Active"}, {"measurement": "Activity", "setting": "Mus musculus [18]", "value": "Active"}, {"measurement": "Activity", "setting": "Mus musculus [19]", "value": "Non-Toxic"}, {"measurement": "Activity", "setting": "Mus musculus [20]", "value": "Active"}, {"measurement": "Activity", "setting": "Mus musculus [21]", "value": "Active"}, {"measurement": "Activity", "setting": "Mus musculus [22]", "value": "Active"}]}, {"smiles": "COc1ccc(CCNC(=O)c2cnc(SC)nc2N2CCOCC2)cc1OC", "values": [{"measurement": "IC50", "setting": "[1]", "value": 61, "unit": "nM"}, {"measurement": "IC50", "setting": "[23]", "value": 284, "unit": "nM"}, {"measurement": "IC50", "setting": "[11]", "value": 659, "unit": "nM"}, {"measurement": "IC50", "setting": "[12]", "value": 61, "unit": "nM"}, {"measurement": "IC50", "setting": "[24]", "value": 136, "unit": "nM"}, {"measurement": "IC50", "setting": "[25]", "value": 326, "unit": "nM"}]}, {"smiles": "COc1ccc(NC(=O)c2cnc(C(F)(F)F)nc2N2CCOCC2)cc1OC", "values": [{"measurement": "IC50", "setting": "[23]", "value": 100, "unit": "nM"}, {"measurement": "IC50", "setting": "[11]", "value": 1500, "unit": "nM"}, {"measurement": "IC50", "setting": "[12]", "value": 67, "unit": "nM"}, {"measurement": "IC50", "setting": "[16]", "value": 678, "unit": "nM"}, {"measurement": "IC50", "setting": "[24]", "value": 385, "unit": "nM"}, {"measurement": "IC50", "setting": "[26]", "value": 950, "unit": "nM"}, {"measurement": "IC50", "setting": "[25]", "value": 156, "unit": "nM"}]}, {"smiles": "COc1ccc(-c2nc(C(F)(F)F)ncc2C(=O)Nc2c(Cl)cncc2Cl)cc1OC", "values": [{"measurement": "IC50", "setting": "[23]", "value": 89, "unit": "nM"}, {"measurement": "IC50", "setting": "[11]", "value": 245, "unit": "nM"}, {"measurement": "IC50", "setting": "[12]", "value": 44, "unit": "nM"}, {"measurement": "IC50", "setting": "[16]", "value": 281, "unit": "nM"}, {"measurement": "IC50", "setting": "[24]", "value": 360, "unit": "nM"}, {"measurement": "IC50", "setting": "[26]", "value": 321, "unit": "nM"}, {"measurement": "IC50", "setting": "[25]", "value": 39, "unit": "nM"}]}, {"smiles": "COc1ccc(CCNC(=O)c2cnc(C(F)(F)F)nc2N2CCOCC2)cc1OC", "values": [{"measurement": "IC50", "setting": "[1]", "value": 150, "unit": "nM"}]}, {"smiles": "COc1ccc(NC(=O)c2cnc(SC)nc2N2CCOCC2)cc1OC", "values": [{"measurement": "IC50", "setting": "[11]", "value": 480, "unit": "nM"}, {"measurement": "IC50", "setting": "[12]", "value": 31, "unit": "nM"}, {"measurement": "IC50", "setting": "[16]", "value": 756, "unit": "nM"}]}, {"smiles": "COc1ccc(CCNC(=O)c2cnc(SC)nc2N2CCN(CCO)CC2)cc1OC", "values": [{"measurement": "IC50", "setting": "[1]", "value": 238, "unit": "nM"}]}]}
